From patent US20210355418A1, “ELECTRODE HAVING NANO STRUCTURE AT TIP” (Ion Chat Research Corporate, priority 2018, published 2021)

How the values were obtained:
Type in all cases: cell-based
[1] = test system: NG108-15 neurons; test: Action potential recording with 3-electrode MagEle; conditions: 10 uM; cells differentiated by 2% FBS, 10 μM Forskolin
Text: When manufacturing multiple electrodes using MagEle, two types of magnets, a fixed magnet, and an electrode magnet, are used. Wrap the fixed electrodes in a non-conductive material such as parafilm, and attach strip-shaped electrodes made of 2 to 4 pieces of aluminum foil.
This aluminum foil electrode is fixed by magnetic force to the electrode magnet from below, the side surface of the electrode magnet other than facing the cells is wrapped with a non-conductive material such as parafilm to insulate it, and “Clip on ground” is attached above the fixed magnet. A holder for fixing the manipulator is attached (FIG. 20).
Recording was performed from NG108-15 neurons differentiated by 2% FBS, 10 μM Forskolin treatment using the 3-electrode MagEle prepared in (8-1) above (FIG. 22).

[2] = test system: differentiated NG108-15 cells; test: Intracellular potential measurement by patch clamp method; conditions: 10 mM
Description: More specifically, a solution containing 2% H.A.T. in DMEM (Sigma-Aldrich) containing 10% FBS (Biowest) was used as the culture medium. According to the literature, in order to differentiate NG108-15 cells into nerve-like cells, FBS in the culture medium is reduced to 2% and the intracellular cAMP concentration is increased by applying the membrane-permeable cAMP (Dibutyryl-cAMP), but in this protocol, it was replaced with 10 uM forskolin. The culture medium was changed at intervals of 2 to 3 days.
This experiment verified that the intracellular potential was induced by glutamate in NG108-15 differentiated cells adjusted in (1-1) using the conventional patch-clamp method.
More specifically, using a glass pipette filled with an intracellular electrolyte solution containing 10 mM glutamate to differentiated NG108-15 cells, the cell membranes were tightly adhered and the glass pipette and cells were electrically integrated.

[3] = test system: differentiated NG108-15 cells; test: Intracellular recording with integrated electrode having nano-protrusion structure at the tip, pressed by manipulator; conditions: 10 mM, integrated electrode fixed with manipulator
Description: More specifically, 0.5 μl PEI (10 mg/ml), 20 ul gold-coated magnetic nanoparticles (NITmagold Cit manufactured by na noimmunotech), and 5 μl of 5 times the concentration HBPS (final concentration of calcium and magnesium is 1 mM) were mixed. It was kept at room temperature for 30 minutes or more. The recording surface of the magnet electrode is fixed upward, the mixed solution is dropped onto the recording surface, adsorbed by magnetic force, and the solution is evaporated at room temperature (Magele).
As shown in the middle drawing of FIG. 3, the entire side surface of the electrode was inserted into a silicon tube (Tyg on) of an insulator to cover it, and the area in contact with the extracellular fluid was further covered with aluminum foil as a ground material. Through the above process, the integrated electrode of the present invention was produced.
The integrated electrode was pressed onto the differentiated NG108-15 cells using a manipulator (FIG. 2), and the integrated electrode was fixed in a state where the nano-protrusion at the tip penetrated the cell membrane and the cells were not crushed. […]
After activating the differentiated NG108-15 cells with 10 mM glutamate, the intracellular potential was measured with an integrated electrode fixed with a manipulator.

[4] = test system: NG108-15 cells; test: Intracellular potential recording of cultured nerve cells with C-M magnet electrode; conditions: final external fluid concentration 800 μM; 2 days neural differentiation
Description: NG108-15 cells were used for the purpose of showing that recording is possible from cultured nerve cells. NG108-15 cells (neuroblastoma-glioma hybrid cells) were cultured in a culture medium containing DMEM (Sigma-Aldrich), HAT supplement (Thermofisher) and 10% FBS (Biowest). NG108-15 was seeded on a cover glass that was coated with 0.1% Polyethyleneimine (pH8.4, 150 mM Sodium Tetra-Borate (Wako)), and cultured in the culture medium, in which FBS concentration was reduced to 5% from the above culture medium, and the nerve differentiation was induced by adding 500 μM Ibuprofen (Wako). […]
PEI and PEG-gold coated magnetic nanoparticles were mixed and left at room temperature for three hours. This mixed solution is moved to the cell-adhesive surface of the neodymium magnet and left for additional fifteen minutes to magnetically bond the gold nanoparticles to the neodymium magnet electrode. […]
Spontaneous action potentials were recorded by placing C-M electrode on cells seeded on coverslips. […]
In addition to the spontaneous action potential, the following experiment was conducted to confirm whether the neuronal activity by the neurotransmitter glutamate can be recorded. […] Glutamic acid was administered to the extracellular fluid (final external fluid concentration 800 μM), and the response mediated by glutamate receptors was recorded. […]

[5] = test system: cardiomyocyte-like cells (iCell Cardiomyocyte2); test: Action potential recording of cardiomyocyte-like cells on conductive glass, charge amplifier (CHAMPL) mode; conditions: final concentration 100 μM in physiological saline, room temperature
Description: Experiments were conducted using myocardial-like cells (iCell Cardiomyocyte2, CDI) as a typical example of cells with low adhesion efficiency to the surface of conductive glass. In order to improve the adhesiveness, the cells were cultured on the surface of conductive glass coated with collagen (Collagen) in a grid pattern in advance. Gold-coated magnetic nanoparticles were introduced into myocardial-like cells and penetrated the cell membrane by a magnetic field. Sodium channels were activated by sodium channel openers such as veratridine and the resulting action potentials were recorded. This experiment was performed at room temperature. […]
Next, using SLO, gold-coated magnetic nanoparticles were introduced into the cell. […] Two days later, the culture medium was replaced with physiological saline before the experiment, and the action potentials of the cells were recorded at room temperature using the charge amplifier mode (ChargeAmpLifier (CHAMPL) mode) (FIG. 10).
However, since the spontaneous action potential could not be observed in this sample (data not shown), Veratridine (Sigma-Aldrich), which acts as a sodium channel opener, was administered to a final concentration of 100 μM in physiological saline. […] Slow depolarization was observed 40 seconds after Veratridine administration, followed by spontaneous action potentials recorded (FIG. 11).

## CC(=O)OCC[N+](C)(C)C [Ach]
[1]
  activity of nerve cell groups: activity of all nerve cell groups was increased

## N[C@@H](CCC(=O)O)C(=O)O [Glutamate, Glutamic acid]
[2]
  intracellular potential response: induced a slow depolarization and action potentials
[3]
  intracellular potential response: Action potentials and slow depolarization were recorded
[4]
  membrane potential response mediated by glutamate receptors: depolarization (upward change) response of the membrane potential
  time for membrane potential change to return to baseline: about 90 seconds

## COc1ccc(C(=O)O[C@H]2CC[C@@]3(C)[C@@H]4CC[C@H]5[C@]6(O)C[C@H](O)[C@@]7(O)[C@@H](CN8C[C@@H](C)CC[C@H]8[C@@]7(C)O)[C@]6(O)C[C@@]53O[C@]24O)cc1OC [Veratridine]
[5]
  time to slow depolarization after administration: 40 s
